According to patent US10106854B2, “Biomarkers for prostate cancer” (Aarhus Universitet, priority 2012, dated 2018):

System: BPH1, PNT1A, LNCaP, 22rv1, PC3 and DU145 cell lines
Experiment: 5-aza-dC treatment, RNA extraction and RT-qPCR
Format: cell-based, human
Conditions: prostatic cell lines, 1 μM 5-aza-dC for two days, five day recovery; when methylation was reduced, not when DNA methylation levels were unaffected
Procedure: BPH1, PNT1A, LNCaP, 22rv1, PC3 and DU145 cell lines at >50% confluence were treated with 1 μM freshly prepared 5-aza-2′-deoxycytidine (5-aza-dC) in 50% acetic acid (Sigma, cat. no.: A3656) for two days. After a five day recovery period, DNA was purified as described above. RNA was purified using the RNeasy Mini kit from Qiagen and stored at −80° C. One μg RNA was reverse transcribed using 100 pmol oligo-dT(24) primer and the SuperScript II Reverse Transcriptase kit (Invitrogen). Taqman® gene expression assays: AOX1 (Hs01565232_m1), C1orf114 (Hs00982321_g1), GAS6 (Hs01090305_m1), and HAPLN3 (Hs00820260_m1) were used with Taqman Mastermix no UNG. UBC was used for normalization (primers: 5′-GATTTGGGTCGCGGTTCTT-3′ and 5′-[…]-3′ used with Power Sybr Green Mastermix). Assays were run twice in triplicate in 10 μL reactions. Reactions were mixed and run as described for qMSP assays.

With `Nc1ncn([C@H]2C[C@H](O)[C@@H](CO)O2)c(=O)n1` [5-aza-dC, 5-aza-2′-deoxycytidine] the “RNA expression from DNA hypermethylated genes” value was “generally stimulated RNA expression”.
